# Test results: patent US20230286960A1, “ALLOSTERIC CHROMENONE INHIBITORS OF PHOSPHOINOSITIDE 3-KINASE (PI3K) FOR THE TREATMENT OF DISEASE” (Petra Pharma Corporation, priority 2020, published 2023)
# Molecular target: human full length PIK3CA H1047R mutant (p110α/p85α) (Homo sapiens (Human), UniProt P42336, H1047R)
# Assay: PI3K-alpha kinase (PIK3CA) activity, H1047R mutant, Transcreener ADP2 FI assay
# Details: PI3K-α (PIK3CA) biochemical
# Protocol: PI3K-Alpha Kinase (PIK3CA) Activity, Wild-Type and H1047R Mutant and Determining IC50 Values for Inhibitors
# Recombinant, catalytically active human full length PIK3KA Wild-type and H1047R mutant were purchased as 1:1 complex of N-terminal 6× his tagged p110 ? (catalytic) and untagged p85 ? (regulatory subunit) from EMD Millipore Sigma (cat. no. 14-602M and 14-792M, respectively). The enzyme stocks were diluted to 5× stocks in buffer (20 mM HEPES pH 7.4, 100 mM NaCl, 0.5 mM EGTA, 0.01% triton-x-100) just before use. PIP2diC8 (Avanti Polar Lipids Inc., cat. no. 850185) or phosphoinositol-4,5-bisphosphate with phosphoserine (PIP2:PS) membrane (Thermo Fisher Scientific, cat. no. PV5100) was used as lipid substrates. PIP2diC8 lyophilized powder and PIP2:PS (1:19) membrane stock (1 mM in PIP2) were separately dissolved in milliQ water to a concentration of 250 uM and stored in −20° C. 10 mM stocks of compounds were serially diluted (3×) in neat DMSO and stored in a dessicator at room temperature. 5× compound stocks in 25% DMSO were prepared fresh from neat DMSO stocks.
# Wild-type (WT) and H1047R mutant protein, along with buffer components (except ATP), were incubated with or without compound at 27° C. for 1 h. After incubation, the reaction was initiated by the addition of 5 uL of 125 uM ATP. A typical assay mixture (25 uL) comprised 40 mM HEPES buffer, pH 7.4, 25 mM MgCl2, 0.01% v/v triton-X-100, 5% v/v DMSO, 20 mM NaCl, 1-5 nM wt or H1047R, 25 uM ATP, and 50 uM PIP2diC8 or PIP2 in membrane. The reaction was allowed to proceed until about […] (2.5 uM ADP) after which time, 10 uL of reaction mixture was quenched with 25 uL of transcreener reagent (Transcreener ADP2 FI assay kit, BellBrook labs, Cat. No. 3013). The contents were incubated at rt for 1 h and fluorescence was measured using a plate reader (Paradigm, Molecular Devices). The same assay was also run at pH 6.0 or 6.4 using MOPS buffer (Fisher BioReagents, CAS 1132-61-2). A calibration curve was generated under identical buffer conditions with varying ADP amounts. Using that, the observed fluorescence was converted to uM ADP. A plot between [ADP] and log[I] yielded the dose-response curves that enabled the calculation of IC50s.
# Sequence of human full length PIK3CA H1047R mutant (p110α/p85α) (P42336 whole entry H1047R): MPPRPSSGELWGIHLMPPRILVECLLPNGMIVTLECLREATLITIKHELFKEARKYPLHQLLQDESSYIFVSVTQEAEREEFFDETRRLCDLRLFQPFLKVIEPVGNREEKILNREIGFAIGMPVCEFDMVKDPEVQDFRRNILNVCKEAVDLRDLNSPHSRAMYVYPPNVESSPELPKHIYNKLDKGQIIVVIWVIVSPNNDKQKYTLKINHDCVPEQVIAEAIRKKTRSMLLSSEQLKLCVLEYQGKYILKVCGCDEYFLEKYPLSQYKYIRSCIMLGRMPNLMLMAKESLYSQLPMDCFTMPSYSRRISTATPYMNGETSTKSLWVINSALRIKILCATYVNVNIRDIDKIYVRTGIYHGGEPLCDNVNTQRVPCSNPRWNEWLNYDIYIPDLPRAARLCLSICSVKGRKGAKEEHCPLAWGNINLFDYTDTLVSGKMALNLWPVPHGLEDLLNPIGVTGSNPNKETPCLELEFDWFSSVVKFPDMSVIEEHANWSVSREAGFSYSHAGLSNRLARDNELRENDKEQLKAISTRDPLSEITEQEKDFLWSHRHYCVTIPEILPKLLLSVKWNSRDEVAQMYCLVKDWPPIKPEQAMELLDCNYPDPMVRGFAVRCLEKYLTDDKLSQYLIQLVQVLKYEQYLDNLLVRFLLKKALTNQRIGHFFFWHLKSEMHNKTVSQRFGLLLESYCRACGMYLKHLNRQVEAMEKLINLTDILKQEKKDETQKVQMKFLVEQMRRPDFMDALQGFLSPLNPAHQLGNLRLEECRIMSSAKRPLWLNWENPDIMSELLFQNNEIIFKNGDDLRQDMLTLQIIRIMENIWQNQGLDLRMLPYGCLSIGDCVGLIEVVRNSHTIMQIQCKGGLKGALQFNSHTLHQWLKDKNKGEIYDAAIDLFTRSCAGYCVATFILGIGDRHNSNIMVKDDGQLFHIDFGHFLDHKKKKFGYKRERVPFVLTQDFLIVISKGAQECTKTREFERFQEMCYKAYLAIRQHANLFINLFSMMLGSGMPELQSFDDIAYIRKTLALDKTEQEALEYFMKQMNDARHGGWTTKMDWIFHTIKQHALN
# Sequence of human full length PIK3CA H1047R mutant (p110α/p85α) (P27986 whole entry partner): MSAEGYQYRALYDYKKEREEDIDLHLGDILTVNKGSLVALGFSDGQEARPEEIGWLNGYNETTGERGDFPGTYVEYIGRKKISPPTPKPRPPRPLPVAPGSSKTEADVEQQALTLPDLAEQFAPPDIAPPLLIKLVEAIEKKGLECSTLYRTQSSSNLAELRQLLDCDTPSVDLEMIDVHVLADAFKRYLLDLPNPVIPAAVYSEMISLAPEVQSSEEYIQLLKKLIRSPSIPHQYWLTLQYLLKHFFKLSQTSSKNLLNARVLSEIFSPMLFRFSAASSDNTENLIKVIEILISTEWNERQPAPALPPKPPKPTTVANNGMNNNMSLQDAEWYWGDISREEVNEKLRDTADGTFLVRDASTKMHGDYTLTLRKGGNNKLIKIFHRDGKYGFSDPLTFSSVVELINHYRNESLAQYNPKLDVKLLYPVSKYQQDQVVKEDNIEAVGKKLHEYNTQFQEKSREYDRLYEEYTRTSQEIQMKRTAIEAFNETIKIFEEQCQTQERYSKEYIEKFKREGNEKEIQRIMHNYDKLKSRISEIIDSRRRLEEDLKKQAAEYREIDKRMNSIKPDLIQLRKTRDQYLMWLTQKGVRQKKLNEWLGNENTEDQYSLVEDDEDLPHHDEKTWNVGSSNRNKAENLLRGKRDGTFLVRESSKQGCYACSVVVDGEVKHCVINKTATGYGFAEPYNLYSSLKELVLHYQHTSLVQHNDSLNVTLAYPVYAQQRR
row,IC50 [nM],Structure (SMILES)
1,< 500,"CONC(=O)c1ccccc1NC(C)c1cc(C)cc2c(=O)cc(N3CCC(C)(C)CC3)oc12 (centres unmarked) [Example 19, 2-[1-[2-(4,4-Dimethyl-1-piperidyl)-6-methyl-4-oxo-chromen-8-yl]ethylamino]-N-methoxy-benzamide]"
2,< 500,"Cc1cc(C(C)Nc2ccc(Cl)nc2C(=O)O)c2oc(N3CCC4(CC3)CC4)c(C)c(=O)c2c1 (centres unmarked) [Example 302, 3-[1-[2-(6-Azaspiro[2.5]octan-6-yl)-3,6-dimethyl-4-oxo-chromen-8-yl]ethylamino]-6-chloro-pyridine-2-carboxylic acid]"
3,< 500,"Cc1cc(C(C)Nc2ccccc2C(=O)O)c2oc(N3CC(C(C)(F)F)C3)cc(=O)c2c1 (stereo not drawn) [Example 189, 2-[1-[2-[3-(1,1-Difluoroethyl)azetidin-l-yl]-6-methyl-4-oxo-chromen-8-yl]ethylamino]benzoic acid 2,2,2-trifluoroacetic acid]"
4,< 500,"CC(Nc1ccccc1C(=O)O)c1cc(C(F)(F)F)cc2c(=O)cc(N3CCC(F)(F)CC3)oc12 (centres unmarked) [Example 396, 2-[1-[2-(4,4-Difluoro-1-piperidyl)-4-oxo-6-(trifluoromethyl)chromen-8-yl]ethylamino]benzoic acid 2,2,2-trifluoroacetic acid]"
5,< 500,"Cc1cc(C(C)Nc2ccc(Cl)nc2C(=O)O)c2oc(N3Cc4ccc(F)cc4C3)cc(=O)c2c1 (centres unmarked) [Example 297, 6-Chloro-3-[1-[2-(5-fluoroisoindolin-2-yl)-6-methyl-4-oxo-chromen-8-yl]ethylamino]pyridine-2-carboxylic acid]"
6,< 500,"Cc1cc(C(C)Nc2sc(Cl)nc2C(=O)O)c2oc(N3Cc4ccccc4C3)cc(=O)c2c1 (centres unmarked) [Example 245, 2-Chloro-5-[1-(2-isoindolin-2-yl-6-methyl-4-oxo-chromen-8-yl)ethylamino]thiazole-4-carboxylic acid 2,2,2-trifluoroacetic acid]"
7,< 500,"Cc1cc(C(C)Nc2ccccc2C(=O)O)c2oc(N3CC4(CCCCC4)C3)cc(=O)c2c1 (centres unmarked) [Example 88, 2-[1-[2-(2-Azaspiro[3.5]nonan-2-yl)-6-methyl-4-oxo-chromen-8-yl]ethylamino]benzoic acid]"
8,< 500,"Cc1cc(C(C)Nc2ccccc2C(=O)O)c2oc(N3CCn4cccc4C3)cc(=O)c2c1 (centres unmarked) [Example 171, 2-[1-[2-(3,4-Dihydro-1H-pyrrolo[1,2-a]pyrazin-2-yl)-6-methyl-4-oxo-chromen-8-yl]ethylamino]benzoic acid]"
9,< 500,"Cc1cc([C@@H](C)Nc2ccccc2C(=O)O)c2oc(N3CC4(CCC4(F)F)C3)c(C)c(=O)c2c1 [Example 289, 2-[[(1R)-1-[2-(7,7-Difluoro-2-azaspiro[3.3]heptan-2-yl)-3,6-dimethyl-4-oxo-chromen-8-yl]ethyl]amino]benzoic acid]"
10,< 500,"CC(Nc1ccccc1C(=O)O)c1cc(F)cc2c(=O)cc(N3CCC4(CC3)CC4)oc12 (centres unmarked) [Example 398, 2-[1-[2-(6-Azaspiro[2.5]octan-6-yl)-6-fluoro-4-oxo-chromen-8-yl]ethylamino]benzoic acid 2,2,2-trifluoroacetic acid]"
11,< 500,CC(Nc1ccccc1C(=O)O)c1cc(F)cc2c(=O)cc(N3CCC(F)(F)CC3)oc12 (centres unmarked) [Example 399]
12,< 500,"Cc1cc([C@@H](C)Nc2ccccc2C(=O)O)c2oc(N3CCC(C#N)(c4ccccc4)CC3)c(C)c(=O)c2c1 [Example 288, 2-[[(1R)-1-[2-(4-Cyano-4-phenyl-1-piperidyl)-3,6-dimethyl-4-oxo-chromen-8-yl]ethyl]amino]benzoic acid]"
13,< 500,"CCc1c(N2CCC(C)(C)CC2)oc2c(C(C)Nc3ccccc3C(=O)O)cc(C)cc2c1=O (centres unmarked) [Example 55, 2-[1-[2-(4,4-dimethyl-1-piperidyl)-3-ethyl-6-methyl-4-oxo-chromen-8-yl]ethylamino]benzoic acid]"

row,Structure (SMILES),IC50 [nM]
1,"Cc1cc(C(C)Nc2ccccc2C(=O)O)c2oc(N3CC4CC(C4)C3)cc(=O)c2c1 (centres unmarked) [Example 177, 2-[1-[2-(3-Azabicyclo[3.1.1]heptan-3-yl)-6-methyl-4-oxo-chromen-8-yl]ethylamino]benzoic acid 2,2,2-trifluoroacetic acid]",< 500
